Measurements reported in the supplement of paper PMC10307832.

compound: CC1(C)CNc2cc(NC(=O)c3cccnc3NCc3ccncc3)ccc21 [Motesanib] + Cc1nc(NC(=O)N2CCC[C@H]2C(N)=O)sc1-c1ccnc(C(C)(C)C(F)(F)F)c1 [Alpelisib] (partner 2 µM); assay: relative viability (nuclei count vs DMSO), 5 days (fraction); higher = more cells survive; conditions: first compound 1 µM
Summary of the method: (§1)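 Lung cancer cell lines in 1536-well plates were dosed by pin tool the day after seeding, either with one drug alone or with a fixed anchor-drug dose plus five library-drug doses (not always all listed) in √10 steps. After 5 days, cells were fixed and their nuclei stained in one step (final 0.05% Triton X-100, 1% formaldehyde, 1 ug/ml Hoechst), then counted on 4× images. Relative viability is the nuclei count in treated wells divided by that in vehicle wells. Values are medians of duplicate plates.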

Row | Cell Line | relative viability
1 | EPLC-272H | 0.914
2 | NCI-H2228 | 0.806
3 | NCI-H1792 | 0.685
4 | NCI-H1355 | 0.828
5 | NCI-H3122 | 0.946
6 | NCI-H1437 | 1.07
7 | NCI-H1755 | 0.909
8 | NCI-H2023 | 0.648
9 | HCC-15 | 0.931
10 | NCI-H1793 | 0.676
11 | PC-14 | 0.958
12 | EKVX | 0.895
13 | LC-2-ad | 0.813
14 | NCI-H1944 | 0.855
15 | NCI-H1975 | 0.675
16 | RERF-LC-KJ | 0.86
17 | NCI-H358 | 1.02
18 | NCI-H650 | 1.08
19 | PC-3 [JPC-3] | 1.03

compound: C[C@@]1(C(=O)Nc2ccc(F)nc2)CCCN1c1nc(Nc2cc(C3CC3)n[nH]2)c2cccn2n1 + C[C@]1(O)C[C@@H](c2nc(-c3ccc4ccc(-c5ccccc5)nc4c3)c3c(N)nccn32)C1 [Linsitinib] (partner 1 µM); assay: as above; conditions: first compound 0.04 µM
Summary of the method: as §1

Row | Cell Line | relative viability
20 | A-427 | 1.11
21 | NCI-H441 | 0.435
22 | NCI-H661 | 0.63
23 | NCI-H1734 | 0.771
24 | NCI-H460 | 0.834
25 | NCI-H2347 | 0.988
26 | SK-LU-1 | 1.15
27 | NCI-H1395 | 1.3
28 | 201T | 0.97
29 | NCI-H1915 | 1.08
30 | HCC-827 | 0.94
31 | LXF-289 | 1.02
32 | NCI-H23 | 0.612
33 | NCI-H647 | 1.17
34 | CAL-12T | 0.827
35 | NCI-H1651 | 1.04
36 | EPLC-272H | 1.39
37 | NCI-H2228 | 0.679

Row | Cell Line | relative viability
38 | NCI-H1792 | 0.654
39 | NCI-H1355 | 0.815
40 | NCI-H3122 | 1.04
41 | NCI-H1437 | 0.935
42 | NCI-H1755 | 1.01
43 | NCI-H2023 | 0.699
44 | HCC-15 | 0.902
45 | NCI-H1793 | 0.863
46 | PC-14 | 1.09
47 | EKVX | 0.989
48 | LC-2-ad | 0.897
49 | NCI-H1944 | 1.18
50 | NCI-H1975 | 0.913
51 | RERF-LC-KJ | 0.868
52 | NCI-H358 | 0.654
53 | NCI-H650 | 1.19
54 | PC-3 [JPC-3] | 0.972

same assay, conditions: first compound 0.1265 µM

Row | Cell Line | relative viability
55 | A-427 | 1.05
56 | NCI-H441 | 0.417
57 | NCI-H661 | 0.809
58 | NCI-H1734 | 0.722
59 | NCI-H460 | 0.667
60 | NCI-H2347 | 0.736
61 | SK-LU-1 | 1.13
62 | NCI-H1395 | 0.737
63 | 201T | 0.97
64 | NCI-H1915 | 1.08
65 | HCC-827 | 0.973
66 | LXF-289 | 0.947
67 | NCI-H23 | 0.5
68 | NCI-H647 | 1.2
69 | CAL-12T | 0.849
70 | NCI-H1651 | 0.898
71 | EPLC-272H | 1.07
72 | NCI-H2228 | 0.616

Row | Cell Line | relative viability
73 | NCI-H1792 | 0.596
74 | NCI-H1355 | 0.882
75 | NCI-H3122 | 1.1
76 | NCI-H1437 | 0.833
77 | NCI-H1755 | 0.954
78 | NCI-H2023 | 0.619
79 | HCC-15 | 0.885
80 | NCI-H1793 | 0.961
81 | PC-14 | 0.814
82 | EKVX | 0.742
83 | LC-2-ad | 0.865
84 | NCI-H1944 | 1.2
85 | NCI-H1975 | 0.922
86 | RERF-LC-KJ | 0.818
87 | NCI-H358 | 0.663
88 | NCI-H650 | 0.706
89 | PC-3 [JPC-3] | 0.94

same assay, conditions: first compound 0.4 µM

Row | Cell Line | relative viability
90 | A-427 | 1.08
91 | NCI-H441 | 0.476
92 | NCI-H661 | 0.571
93 | NCI-H1734 | 0.794
94 | NCI-H460 | 0.708
95 | NCI-H2347 | 0.915
96 | SK-LU-1 | 0.74
97 | NCI-H1395 | 1.01
98 | 201T | 0.908
99 | NCI-H1915 | 1.08
100 | HCC-827 | 0.945
101 | LXF-289 | 0.936
102 | NCI-H23 | 0.484
103 | NCI-H647 | 0.952
104 | CAL-12T | 0.78
105 | NCI-H1651 | 0.984
106 | EPLC-272H | 1.12
107 | NCI-H2228 | 0.69

Row | Cell Line | relative viability
108 | NCI-H1792 | 0.503
109 | NCI-H1355 | 0.727
110 | NCI-H3122 | 1.01
111 | NCI-H1437 | 0.671
112 | NCI-H1755 | 0.895
113 | NCI-H2023 | 0.537
114 | HCC-15 | 0.782
115 | NCI-H1793 | 0.573
116 | PC-14 | 0.825
117 | EKVX | 0.725
118 | LC-2-ad | 0.788
119 | NCI-H1944 | 1.1
120 | NCI-H1975 | 0.933
121 | RERF-LC-KJ | 0.838
122 | NCI-H358 | 0.494
123 | NCI-H650 | 0.804
124 | PC-3 [JPC-3] | 0.964

same assay, conditions: first compound 1.265 µM

Row | Cell Line | relative viability
125 | A-427 | 1.16
126 | NCI-H441 | 0.543
127 | NCI-H661 | 0.545
128 | NCI-H1734 | 0.903
129 | NCI-H460 | 0.82
130 | NCI-H2347 | 0.893
131 | SK-LU-1 | 0.913
132 | NCI-H1395 | 0.947
133 | 201T | 1.04
134 | NCI-H1915 | 1.16
135 | HCC-827 | 0.961
136 | LXF-289 | 1.02
137 | NCI-H23 | 0.613
138 | NCI-H647 | 1.26
139 | CAL-12T | 0.817
140 | NCI-H1651 | 1.12
141 | EPLC-272H | 1.58
142 | NCI-H2228 | 0.769
143 | NCI-H1792 | 0.713
144 | NCI-H1355 | 0.887
145 | NCI-H3122 | 1.06
146 | NCI-H1437 | 0.843
147 | NCI-H1755 | 1.04
148 | NCI-H2023 | 0.657
